The supplement of paper PMC9912026

Tested on: HT29
Assay: pERK immunofluorescence normalised to no-drug reference (=1); higher = more ERK phosphorylation (less pathway inhibition)
Conditions: drug treatment time 24 h, EGF time 8 h
Experimental: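 A375 CRISPRa-EGFR (A375_aEGFR2) or HT29 cells were treated with two-drug dose combinations (vemurafenib, LY3009120, cobimetinib) for 24 h, then stimulated with EGF (100 ng/mL) or mock medium for 8 h. pERK (T202/Y204) was measured by immunofluorescence as the cytosolic population average, normalised to an untreated no-drug reference of the block (=1). Averages of 2 technical replicates. A375 in 5% FBS, HT29 in 10% FBS.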

`CCCS(=O)(=O)Nc1ccc(F)c(C(=O)c2c[nH]c3ncc(-c4ccc(Cl)cc4)cc23)c1F` [Vemurafenib] + O=C(c1ccc(F)c(F)c1Nc1ccc(I)cc1F)N1CC(O)([C@@H]2CCCCN2)C1 [Cobimetinib] was tested. Which pERK immunofluorescence normalised (drug A concentration 0 µM, drug B concentration 0.0001 µM, EGF 0 ng/mL) did it give?
Its pERK immunofluorescence normalised is 1.1.

And the pERK immunofluorescence normalised (drug A concentration 0 µM, drug B concentration 0.0001 µM, EGF 100 ng/mL)?
Its pERK immunofluorescence normalised is 1.01.

And the pERK immunofluorescence normalised (drug A concentration 0 µM, drug B concentration 0.0003162 µM, EGF 0 ng/mL)?
Its pERK immunofluorescence normalised is 0.976.

And the pERK immunofluorescence normalised (drug A concentration 0 µM, drug B concentration 0.0003162 µM, EGF 100 ng/mL)?
The pERK immunofluorescence normalised was 0.982.

What about the pERK immunofluorescence normalised (drug A concentration 0 µM, drug B concentration 0.001 µM, EGF 0 ng/mL) of the same compound?
Its pERK immunofluorescence normalised is 0.886.

What about the pERK immunofluorescence normalised (drug A concentration 0 µM, drug B concentration 0.001 µM, EGF 100 ng/mL) of the same compound?
Its pERK immunofluorescence normalised is 0.979.

What about the pERK immunofluorescence normalised (drug A concentration 0 µM, drug B concentration 0.00316228 µM, EGF 0 ng/mL) of the same compound?
The pERK immunofluorescence normalised was 0.53.

And the pERK immunofluorescence normalised (drug A concentration 0 µM, drug B concentration 0.00316228 µM, EGF 100 ng/mL)?
Its pERK immunofluorescence normalised is 0.936.

And the pERK immunofluorescence normalised (drug A concentration 0 µM, drug B concentration 0.01 µM, EGF 0 ng/mL)?
Its pERK immunofluorescence normalised is 0.231.

What about the pERK immunofluorescence normalised (drug A concentration 0 µM, drug B concentration 0.01 µM, EGF 100 ng/mL) of the same compound?
Its pERK immunofluorescence normalised is 0.829.

And the pERK immunofluorescence normalised (drug A concentration 0 µM, drug B concentration 0.0316228 µM, EGF 0 ng/mL)?
Its pERK immunofluorescence normalised is 0.148.

And the pERK immunofluorescence normalised (drug A concentration 0 µM, drug B concentration 0.0316228 µM, EGF 100 ng/mL)?
Its pERK immunofluorescence normalised is 0.673.

And the pERK immunofluorescence normalised (drug A concentration 0 µM, drug B concentration 0.1 µM, EGF 0 ng/mL)?
Its pERK immunofluorescence normalised is 0.115.

And the pERK immunofluorescence normalised (drug A concentration 0 µM, drug B concentration 0.1 µM, EGF 100 ng/mL)?
The pERK immunofluorescence normalised was 0.483.

What about the pERK immunofluorescence normalised (drug A concentration 0 µM, drug B concentration 0.316228 µM, EGF 0 ng/mL) of the same compound?
Its pERK immunofluorescence normalised is 0.102.

And the pERK immunofluorescence normalised (drug A concentration 0 µM, drug B concentration 0.316228 µM, EGF 100 ng/mL)?
The pERK immunofluorescence normalised was 0.218.

And the pERK immunofluorescence normalised (drug A concentration 0 µM, drug B concentration 1 µM, EGF 0 ng/mL)?
The pERK immunofluorescence normalised was 0.0988.

What about the pERK immunofluorescence normalised (drug A concentration 0 µM, drug B concentration 1 µM, EGF 100 ng/mL) of the same compound?
The pERK immunofluorescence normalised was 0.117.

What about the pERK immunofluorescence normalised (drug A concentration 0.000316 µM, drug B concentration 0 µM, EGF 0 ng/mL) of the same compound?
The pERK immunofluorescence normalised was 1.

What about the pERK immunofluorescence normalised (drug A concentration 0.000316 µM, drug B concentration 0 µM, EGF 100 ng/mL) of the same compound?
The pERK immunofluorescence normalised was 1.1.

And the pERK immunofluorescence normalised (drug A concentration 0.000316 µM, drug B concentration 0.0001 µM, EGF 0 ng/mL)?
Its pERK immunofluorescence normalised is 1.07.

What about the pERK immunofluorescence normalised (drug A concentration 0.000316 µM, drug B concentration 0.0001 µM, EGF 100 ng/mL) of the same compound?
The pERK immunofluorescence normalised was 1.09.

What about the pERK immunofluorescence normalised (drug A concentration 0.000316 µM, drug B concentration 0.0003162 µM, EGF 0 ng/mL) of the same compound?
Its pERK immunofluorescence normalised is 1.06.

What about the pERK immunofluorescence normalised (drug A concentration 0.000316 µM, drug B concentration 0.0003162 µM, EGF 100 ng/mL) of the same compound?
Its pERK immunofluorescence normalised is 1.13.

What about the pERK immunofluorescence normalised (drug A concentration 0.000316 µM, drug B concentration 0.001 µM, EGF 0 ng/mL) of the same compound?
The pERK immunofluorescence normalised was 0.85.

And the pERK immunofluorescence normalised (drug A concentration 0.000316 µM, drug B concentration 0.001 µM, EGF 100 ng/mL)?
The pERK immunofluorescence normalised was 1.03.

What about the pERK immunofluorescence normalised (drug A concentration 0.000316 µM, drug B concentration 0.00316228 µM, EGF 0 ng/mL) of the same compound?
Its pERK immunofluorescence normalised is 0.482.

And the pERK immunofluorescence normalised (drug A concentration 0.000316 µM, drug B concentration 0.00316228 µM, EGF 100 ng/mL)?
Its pERK immunofluorescence normalised is 1.03.

And the pERK immunofluorescence normalised (drug A concentration 0.000316 µM, drug B concentration 0.01 µM, EGF 0 ng/mL)?
Its pERK immunofluorescence normalised is 0.233.

What about the pERK immunofluorescence normalised (drug A concentration 0.000316 µM, drug B concentration 0.01 µM, EGF 100 ng/mL) of the same compound?
Its pERK immunofluorescence normalised is 0.928.

And the pERK immunofluorescence normalised (drug A concentration 0.000316 µM, drug B concentration 0.0316228 µM, EGF 0 ng/mL)?
The pERK immunofluorescence normalised was 0.136.

And the pERK immunofluorescence normalised (drug A concentration 0.000316 µM, drug B concentration 0.0316228 µM, EGF 100 ng/mL)?
Its pERK immunofluorescence normalised is 0.82.

What about the pERK immunofluorescence normalised (drug A concentration 0.000316 µM, drug B concentration 0.1 µM, EGF 0 ng/mL) of the same compound?
Its pERK immunofluorescence normalised is 0.102.

And the pERK immunofluorescence normalised (drug A concentration 0.000316 µM, drug B concentration 0.1 µM, EGF 100 ng/mL)?
The pERK immunofluorescence normalised was 0.539.

What about the pERK immunofluorescence normalised (drug A concentration 0.000316 µM, drug B concentration 0.316228 µM, EGF 0 ng/mL) of the same compound?
The pERK immunofluorescence normalised was 0.0952.

And the pERK immunofluorescence normalised (drug A concentration 0.000316 µM, drug B concentration 0.316228 µM, EGF 100 ng/mL)?
The pERK immunofluorescence normalised was 0.227.

What about the pERK immunofluorescence normalised (drug A concentration 0.000316 µM, drug B concentration 1 µM, EGF 0 ng/mL) of the same compound?
The pERK immunofluorescence normalised was 0.0916.

And the pERK immunofluorescence normalised (drug A concentration 0.000316 µM, drug B concentration 1 µM, EGF 100 ng/mL)?
The pERK immunofluorescence normalised was 0.111.

What about the pERK immunofluorescence normalised (drug A concentration 0.001 µM, drug B concentration 0 µM, EGF 0 ng/mL) of the same compound?
Its pERK immunofluorescence normalised is 1.05.

And the pERK immunofluorescence normalised (drug A concentration 0.001 µM, drug B concentration 0 µM, EGF 100 ng/mL)?
Its pERK immunofluorescence normalised is 1.05.

What about the pERK immunofluorescence normalised (drug A concentration 0.001 µM, drug B concentration 0.0001 µM, EGF 0 ng/mL) of the same compound?
The pERK immunofluorescence normalised was 1.06.

What about the pERK immunofluorescence normalised (drug A concentration 0.001 µM, drug B concentration 0.0001 µM, EGF 100 ng/mL) of the same compound?
The pERK immunofluorescence normalised was 1.11.

What about the pERK immunofluorescence normalised (drug A concentration 0.001 µM, drug B concentration 0.0003162 µM, EGF 0 ng/mL) of the same compound?
The pERK immunofluorescence normalised was 1.03.

What about the pERK immunofluorescence normalised (drug A concentration 0.001 µM, drug B concentration 0.0003162 µM, EGF 100 ng/mL) of the same compound?
Its pERK immunofluorescence normalised is 1.14.

And the pERK immunofluorescence normalised (drug A concentration 0.001 µM, drug B concentration 0.001 µM, EGF 0 ng/mL)?
The pERK immunofluorescence normalised was 0.855.

And the pERK immunofluorescence normalised (drug A concentration 0.001 µM, drug B concentration 0.001 µM, EGF 100 ng/mL)?
The pERK immunofluorescence normalised was 1.08.

What about the pERK immunofluorescence normalised (drug A concentration 0.001 µM, drug B concentration 0.00316228 µM, EGF 0 ng/mL) of the same compound?
The pERK immunofluorescence normalised was 0.463.

What about the pERK immunofluorescence normalised (drug A concentration 0.001 µM, drug B concentration 0.00316228 µM, EGF 100 ng/mL) of the same compound?
The pERK immunofluorescence normalised was 1.02.

And the pERK immunofluorescence normalised (drug A concentration 0.001 µM, drug B concentration 0.01 µM, EGF 0 ng/mL)?
The pERK immunofluorescence normalised was 0.217.

What about the pERK immunofluorescence normalised (drug A concentration 0.001 µM, drug B concentration 0.01 µM, EGF 100 ng/mL) of the same compound?
The pERK immunofluorescence normalised was 0.873.

What about the pERK immunofluorescence normalised (drug A concentration 0.001 µM, drug B concentration 0.0316228 µM, EGF 0 ng/mL) of the same compound?
Its pERK immunofluorescence normalised is 0.127.

What about the pERK immunofluorescence normalised (drug A concentration 0.001 µM, drug B concentration 0.0316228 µM, EGF 100 ng/mL) of the same compound?
Its pERK immunofluorescence normalised is 0.751.

What about the pERK immunofluorescence normalised (drug A concentration 0.001 µM, drug B concentration 0.1 µM, EGF 0 ng/mL) of the same compound?
The pERK immunofluorescence normalised was 0.106.

What about the pERK immunofluorescence normalised (drug A concentration 0.001 µM, drug B concentration 0.1 µM, EGF 100 ng/mL) of the same compound?
Its pERK immunofluorescence normalised is 0.499.
